We go through three compounds from patent US20170172994A1, “COMPOSITIONS AND METHODS FOR TREATING BACTERIAL INFECTIONS” (WOCKHARDT LIMITED, priority 2013, published 2017).

≈ marks a conversion by molar mass, not a printed value. Read-outs that look alike come from different tables or passages of the source.

For one assay, the system named is K pneumoniae J 104. As to the kind of experiment: MIC determination (agar dilution, CLSI). The assay is classed as cell-based. As to conditions: K pneumoniae J 104 (TEM1, SHV11, CTX-M, OMP); standalone. The procedure: (§1) In a typical procedure for determining MIC values, overnight grown bacterial cultures were diluted appropriately and inoculated on the agar media containing doubling concentrations of the test compounds. Observation for growth or no growth was performed after 16-20 hours of incubation at 35±2° C. in ambient air. The overall procedure was performed as per Clinical and Laboratory Standards Institute (CLSI) recommendations (Clinical and Laboratory Standards Institute (CLSI), Performance Standards for Antimicrobial Susceptibility Testing, 20th Informational Supplement, M 100-S20, Volume 30, No. 1, 2010).

Another assay relates to K pneumoniae J 105. As to the kind of experiment: MIC determination (agar dilution, CLSI). The assay is classed as cell-based. Particulars: K pneumoniae J 105 (TEM1, SHV2, CTX-M, OMP); standalone. As for the experimental part:
as §1
For orientation: Agar dilution tests growth on a series of plates holding different concentrations.

A further assay concerns K pneumoniae J 101. As to the kind of experiment: MIC determination (agar dilution, CLSI). The assay is classed as cell-based. As to conditions: K pneumoniae J 101 (TEM1, SHV12, OMP); standalone. The procedure:
as §1

The subject of a further assay is K pneumoniae J 102. The experiment in a line: MIC determination (agar dilution, CLSI). The assay is classed as cell-based. Particulars: K pneumoniae J 102 (TEM1, SHV5, OMP); standalone. As for the experimental part: as §1
The subject of another assay is E. coli ATCC 25922. The experiment in a line: Microbiological drug diffusion assay, standalone compounds in absence of beta-lactamase enzymes. Particulars: Escherichia coli, read-out: Inhibition zone diameter. The assay is classed as cell-based. The procedure:
(§2) Next, the beta-lactamase stability of some of these compounds was evaluated. In a typical stability study, ESBL enzymes from K. pneumoniae S48 producing Metalo betalactamase (NDM4) and Class A (CTX-M, SHV, TEM) beta-lactamase were isolated from freshly grown culture by 5 repetitive cycles of freeze and thaw in liquid nitrogen. […] After the stipulated incubation duration, the test compounds were extracted from the reaction mixture by the addition of 0.5 ml of Acetonitrile in 1:1 ratio (final concentration of test compound—40 μg/ml) and centrifuged at 12000 rpm for 2 min to separate precipitated protein. The activity of test compounds was measured from the supernatant by performing microbiological drug diffusion assay. For drug diffusion assay, Muller-Hinton Agar (MHA) seeded with E. coli ATCC 25922 was poured on to a bioassay plate placed on a flat surface and allowed to solidify. Appropriate concentration of the standalone and enzyme treated test compound dilutions were added to 6 mm wells cut with the help of a borer. The antibacterial activity of the test compounds was measured in terms of zones of inhibition appearing after 18-24 hours of incubation at 37° C. Measurement of diameter of zone of inhibition was undertaken to the nearest whole value with the help of ruler.

The test system of assay [1] is ESBL enzymes from K. pneumoniae S48 producing Metalo betalactamase (NDM4) and Class A (CTX-M, SHV, TEM) beta-lactamase. The experiment in a line: Beta-lactamase stability study (crude enzyme extract, then drug diffusion assay on E. coli ATCC 25922). The assay is classed as biochemical. As to conditions: for Inhibition zone diameter after treatment with beta-lactamase enzyme: 40 μg/ml, zone on E. coli ATCC 25922. As for the experimental part:
as §2

In the next assay the target is Pseudomonas PBP 5/6 (Pseudomonas aeruginosa, UniProt G3XD74). As to the kind of experiment: PBP binding assay (Bocillin FL competition). Particulars: read-out: IC50. The procedure: (§3) The phrase “selective and high affinity PBP binder” refers to a PBP binder which binds to only one PBP with very high affinity. In general, the term “selective and high affinity PBP binder” also includes those binders where a substantial fraction of binder selectively binds to only one PBP with high affinity. […]. The term “IC50 value” of a compound refers to the concentration of the compound that reduces the binding of Bocillin-FL to PBPs by 50% as compared to when no compound was added to the reaction.
Pseudomonas PBP 5/6, sequence (G3XD74 entry or part of it): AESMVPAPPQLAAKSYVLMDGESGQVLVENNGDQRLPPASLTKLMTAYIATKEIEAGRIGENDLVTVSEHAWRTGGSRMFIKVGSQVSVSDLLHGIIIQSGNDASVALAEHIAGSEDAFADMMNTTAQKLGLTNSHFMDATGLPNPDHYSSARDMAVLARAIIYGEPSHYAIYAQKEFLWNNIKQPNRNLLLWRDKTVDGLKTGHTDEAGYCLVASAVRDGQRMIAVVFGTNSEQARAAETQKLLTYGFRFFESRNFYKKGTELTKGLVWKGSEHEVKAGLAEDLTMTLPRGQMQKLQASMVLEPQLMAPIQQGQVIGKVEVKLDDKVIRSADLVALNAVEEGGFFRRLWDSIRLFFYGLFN
(§4) A compound of Formula (III) was prepared using the procedure disclosed in PCT International Application No. PCT/IB2012/054290 and was evaluated for its PBP binding affinity profile. […] The reaction mixtures were then denatured with 20 μl each of SDS-denaturing solution at 100° C. for 3 min PBPs were separated through 10% SDS polyacrylamide gel electrophoresis (Bio-Rad Laboratories, Hercules, Calif.). The protein gels were rinsed in water immediately after electrophoresis. […] […].

Another assay addresses T1, Pseudomonas PBP 1A (Pseudomonas aeruginosa, UniProt Q07806).
T1 construct: endogenous in cells
As to the kind of experiment: PBP binding assay (Bocillin FL competition). As for the experimental part: as §3, §4

Assay [2] has as its system Pseudomonas aeruginosa NCTC 13437 producing carbapenem hydrolyzing MBL (VIM 10) & Class A (VEB1). As to the kind of experiment: Time kill study (viability count). In kind it is cell-based. Particulars: Cefepime 8 μg/ml, Compound of Formula (III) 8 μg/ml, Imipenem 16 μg/ml. As for the experimental part: (§5) The antibacterial effectiveness of various antibacterial agents in presence of a compound of Formula (III) was investigated and the results are detailed below. In a typical study, overnight cultures in Trypticase soya broth (TSB) were brought to log phase by 1 in 10 dilution in fresh cation adjusted Mueller Hinton Broth (MHB) and incubation for 2.5 hours at 35° C. in orbital shaker. Log phase cultures were diluted to desired inoculums in flasks with MHB, containing various drug concentrations. Flasks were incubated at 35° C. in orbital shaker with rotational speed of 125 rpm. Viability count was determined by 1 in 10 serial dilutions of samples in normal saline and surface spreading of 10 μl of dilutions in duplicate on Trypticase soya agar plates. Plates were incubated for 24 hours at 35° C. and colonies were enumerated to determine the colony forming units (CFU) per ml volume.

For assay [3], the system named is Acinetobacter baumannii NCTC 13304 producing carbapenem hydrolyzing Class D OXA enzyme (OXA 27). As to the kind of experiment: Time kill study (viability count). As to conditions: Cefepime 8 μg/ml, Compound of Formula (III) 8 μg/ml, Imipenem 16 μg/ml. The assay is classed as cell-based. As for the experimental part:
as §5

Assay [4] has as its system MDR P. mirabilis G 186 producing NDM & TEM β-lactamases. As to the kind of experiment: Time kill study at MFC and MSC. The assay is classed as cell-based. Particulars: Cefepime 8 mcg/ml (MFC), Compound of Formula (III) 0.25 mcg/ml (MSC), Imepenem 8 mcg/ml. As for the experimental part:
(§6) The synergistic killing effect of the combinations according to invention was studied by performing time kill studies. In a typical time kill study, the freshly grown cultures were diluted to the required cell density (initial starting inoculum) in Cation adjusted Muller Hinton broth medium (BD, USA). The antibacterial agents (either alone or in combination) at the required concentrations were added into the culture-containing medium. The samples were incubated under shaking condition (120 rpm) at 37° C. Enumeration of viable bacterial count was done every 2 hour by diluting in normal saline and plating on to the Tryptic Soya Agar plates (BD, USA). The plates were incubated for 24 hours to arrive at the viable bacterial count. The results are expressed in terms of Log CFU per ml. In general, the decrease of 1 Log CFU/ml, corresponds to 90% killing of bacteria. Similarly, 2 Log CFU/ml reductions indicates to 99% killing of bacteria and 3 Log CFU/ml reductions is equal to 99.9% killing of bacteria.

In assay [5] the test system is MDR Klebsiella pneumoniae B 88 producing NDM, SHV & TEM beta-lactamases. As to the kind of experiment: Time kill study at MFC and MSC. The assay is classed as cell-based. Particulars: Cefepime 8 mcg/ml (MFC), Compound of Formula (III) 0.12 mcg/ml (MSC), Imepenem 8 mcg/ml. As for the experimental part: as §6
For assay [6], the system named is K. pneumonia S48 expressing multiple ESBLs including MBL (NDM4) and Class A (CTX-M, SHV, TEM). The assay is classed as cell-based, K. pneumoniae. Particulars: Cefepime 8 μg/ml, Compound of Formula (III) 2 μg/ml, Clavulanic acid 2 μg/ml, Mecillinam 2 μg/ml, Imipenem 8 μg/ml. As for the experimental part:
Log phase cultures were diluted to desired inoculums in flasks with MHB, containing various drug concentrations. Flasks were incubated at 35° C. in orbital shaker with rotational speed of 125 rpm. […] Plates were incubated for 24 hours at 35° C. and colonies were enumerated to determine the colony forming units (CFU) per ml volume.

T1 sequence (Q07806 whole entry): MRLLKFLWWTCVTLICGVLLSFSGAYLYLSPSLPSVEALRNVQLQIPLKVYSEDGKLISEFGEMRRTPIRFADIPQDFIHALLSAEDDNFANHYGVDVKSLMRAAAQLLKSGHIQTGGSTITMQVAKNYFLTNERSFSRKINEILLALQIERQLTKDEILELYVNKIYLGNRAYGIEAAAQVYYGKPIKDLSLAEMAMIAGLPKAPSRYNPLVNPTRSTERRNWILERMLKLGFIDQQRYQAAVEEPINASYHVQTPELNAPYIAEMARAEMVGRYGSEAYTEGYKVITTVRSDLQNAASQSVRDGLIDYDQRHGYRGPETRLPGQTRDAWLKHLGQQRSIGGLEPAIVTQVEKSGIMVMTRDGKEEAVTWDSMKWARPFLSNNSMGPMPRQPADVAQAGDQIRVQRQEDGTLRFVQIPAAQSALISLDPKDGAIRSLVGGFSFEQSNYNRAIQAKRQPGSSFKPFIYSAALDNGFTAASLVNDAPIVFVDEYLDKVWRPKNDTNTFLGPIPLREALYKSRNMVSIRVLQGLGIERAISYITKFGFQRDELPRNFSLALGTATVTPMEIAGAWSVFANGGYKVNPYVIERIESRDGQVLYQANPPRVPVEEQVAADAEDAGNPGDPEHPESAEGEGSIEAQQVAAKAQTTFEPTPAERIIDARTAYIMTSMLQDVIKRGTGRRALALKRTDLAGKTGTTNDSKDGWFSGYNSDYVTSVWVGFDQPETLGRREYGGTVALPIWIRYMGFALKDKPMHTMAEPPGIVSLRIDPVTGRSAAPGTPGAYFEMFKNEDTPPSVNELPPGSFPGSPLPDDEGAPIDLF

As for `C[C@@H](O)[C@H]1C(=O)N2C(C(=O)O)=C(S[C@@H]3CN[C@H](C(=O)N(C)C)C3)[C@H](C)[C@H]12` [Meropenem], the MIC (in general, the least concentration at which growth counts as inhibited) in the assay on K pneumoniae J 104 was determined as 4 µg/mL (≈ 10.4 µM); in the assay with K pneumoniae J 105, 4 µg/mL (≈ 10.4 µM); in the assay with K pneumoniae J 101, 4 µg/mL (≈ 10.4 µM); in the assay with K pneumoniae J 102 it was 8 µg/mL (≈ 20.9 µM).
In the case of `CC1(C)S[C@@H]2[C@H](/N=C/N3CCCCCC3)C(=O)N2[C@H]1C(=O)O` [Mecillinam], the zone of inhibition at 40 µg/mL turned out to be 15.5 mm with E. coli ATCC 25922 (ATCC25922, 0 h); 15.5 mm with E. coli ATCC 25922 (ATCC25922, 1 h); 15.5 mm in the assay with E. coli ATCC 25922 (ATCC25922, 2 h); 15.5 mm in the assay on E. coli ATCC 25922 (ATCC25922, 24 h). For the same compound, the “Inhibition zone diameter after treatment with beta-lactamase enzyme” value was determined as 15.5 mm in assay [1] (0 hour incubation at 37° C.), 12 mm in [1] (1 hour incubation at 37° C.), 0 mm in [1] (2 hours incubation at 37° C.) and 0 mm in [1] (24 hours incubation at 37° C.). Besides, the “Stability to beta-lactamase (in words)” value in assay [1] (carbapenem hydrolyzing metallo beta-lactamase, up to 24 hours) is on record as “not stable to the beta-lactamase”. The IC50 on Pseudomonas PBP 5/6 and at Pseudomonas PBP 1A was > 12.3 µM each time.
As to `C[C@@H](O)[C@H]1C(=O)N2C(C(=O)O)=C(SCCN=CN)C[C@H]12` [Imipenem], the zone of inhibition at 40 µg/mL was found to be 22 mm in the assay on E. coli ATCC 25922 (ATCC25922, 40 μg/ml, no beta-lactamase, 0 hour); 22 mm with E. coli ATCC 25922 (ATCC25922, 40 μg/ml, no beta-lactamase, 1 hour); 22 mm with E. coli ATCC 25922 (ATCC25922, 40 μg/ml, no beta-lactamase, 2 hours); 22 mm in the assay with E. coli ATCC 25922 (ATCC25922, 40 μg/ml, no beta-lactamase, 24 hours). The Bacterial count is 6.0 log (CFU/ml) in assay [2] (0 hour); 7.2 log (CFU/ml) in assay [2] (2 hours); 7.9 log (CFU/ml) in [2] (4 hours); 7.9 log (CFU/ml) in [2] (6 hours); 8.3 log (CFU/ml) in [2] (12 hours); 6.3 log (CFU/ml) in [3] (0 hour). The Bacterial count in assay [3] (2 hours) was 7.2 log (CFU/ml); in assay [3] (4 hours) it was 7.9 log (CFU/ml); in [3] (6 hours), 7.9 log (CFU/ml); in assay [3] (8 hours), 8 log (CFU/ml); in assay [4] (0 hour) it was 6.58 Log10 CFU/ml; in [4] (2 hours) it was 7.2 Log10 CFU/ml. For the same compound, the Bacterial count came to 9.45 Log10 CFU/ml in [4] (4 hours); 8.65 Log10 CFU/ml in assay [4] (6 hours); 8.85 Log10 CFU/ml in assay [4] (8 hours); 6.14 Log10 CFU/ml in assay [5] (0 hour); 8.65 Log10 CFU/ml in assay [5] (2 hours); 8.7 Log10 CFU/ml in [5] (4 hours). For the same compound, the Bacterial count in assay [5] (6 hours) is on record as 8.74 Log10 CFU/ml; in [5] (8 hours), 8.78 Log10 CFU/ml; in assay [6] (0 hour), 5.5 log (CFU/ml); in [6] (2 hours), 3.0 log (CFU/ml); in assay [6] (4 hours), 3.0 log (CFU/ml); in [6] (6 hours) it was 4.0 log (CFU/ml). Besides, the Bacterial count in assay [6] (24 hours) was 8.69 log (CFU/ml).
